Six molecules from ChEMBL document CHEMBL5046309, “Discovery of SHR5133, a Highly Potent and Novel HBV Capsid Assembly Modulator” (ACS Med Chem Lett, 2022) can be followed below.

Calls of active or inactive are those of the source. No cut-off for these calls is given here.

The term CC50 denotes the concentration giving 50% cytotoxicity. One may read the Emax as the size of the effect at its maximum, as opposed to the concentration needed.

One experiment has as its system HepG2 2.2.15. The experiment can be described thus: Cytotoxicity against human HepG2.2.15 cells assessed as reduction in cell viability incubated for 72 hrs by cell titer-glo assay. Type of experiment: functional. For orientation: In ATP-based viability assays light output follows the ATP content of the culture.
For experiment [1], the system named is Hepatitis B virus. Put plainly: Antiviral activity against HBV infected in C57BL/6 mouse assessed as reduction on HBsAg level at 400 mg/kg,po BID for 28 days by ELISA. Type of experiment: functional, organism-based. The following applies: time 28.0 day. In general terms: An ELISA detects its analyte on a solid surface through an enzyme-linked reagent.
The test system of experiment [2] is Hepatitis B virus. The experiment can be described thus: Antiviral activity against HBV infected in C57BL/6 mouse assessed as reduction on HBeAg level at 400 mg/kg,po BID for 28 days by ELISA. The experiment is classed as functional, organism-based. The following applies: time 28.0 day.
For experiment [3], the target named is Core antigen (Hepatitis B virus) (UniProt Q03732). The experiment can be described thus: Modulation of capsid assembly in HBV infected in human HepG2.2.15 cells assessed as maximal inhibition of viral DNA replication preincubated for 3 days followed by replacement with fresh medium containing compound and measured after 3 day by qPCR analysis. Type of experiment: cell-based. To be noted: filed as modulator, time 6.0 day.
Core antigen (Hepatitis B virus), sequence (Q03732 as listed by the source): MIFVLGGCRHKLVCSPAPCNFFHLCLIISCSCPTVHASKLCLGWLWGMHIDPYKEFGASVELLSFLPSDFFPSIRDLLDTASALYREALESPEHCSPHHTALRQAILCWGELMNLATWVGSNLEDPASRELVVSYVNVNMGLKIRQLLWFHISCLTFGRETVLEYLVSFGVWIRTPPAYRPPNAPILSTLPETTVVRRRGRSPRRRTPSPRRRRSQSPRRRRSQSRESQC

Turning to `CC1CN(C(=O)Nc2ccc(F)c(C#N)c2)Cc2c(C(=O)N[C@H](C)C(F)(F)F)ncn21` (single isomer, unassigned), the 50% cytotoxic concentration (CC50) in the experiment on HepG2 2.2.15 is greater than 100 µM.

On to `O=C(Nc1cc(F)c(F)c(F)c1)c1ccc(F)c(S(=O)(=O)N2CCC(O)CC2)c1`, for which the result in the experiment with Hepatitis B virus [1] and in the experiment on Hepatitis B virus [2] was inactive.

On to `C[C@H]1CN(C(=O)Nc2ccc(F)c(F)c2)Cc2c(C(=O)N[C@H](C)C(F)(F)F)ncn21`, for which, in the experiment on HepG2 2.2.15, the result was inactive. The Emax in experiment [3] came to 60%. Regarding `C[C@H]1Cn2ncc(C(=O)N[C@H](C)C(F)(F)F)c2CN1C(=O)Nc1cc(F)nc(F)c1`, in the experiment on HepG2 2.2.15, the CC50 is greater than 100 µM. On the same count and under the same terms, to `C[C@@H]1Cn2cnc(C(=O)N[C@H](C)C(F)(F)F)c2CN1C(=O)Nc1ccc(F)c(F)c1` belongs greater than 100 µM. For `C[C@H](NC(=O)c1ncn2c1CN(C(=O)Nc1ccc(F)c(C#N)c1)[C@@H](C)C2)C(F)(F)F`, the outcome with HepG2 2.2.15 was inactive.
